From US12358915B2, “METTL3 inhibitory compounds” (STORM THERAPEUTICS LTD., priority 2019, dated 2025)

Molecular target: T1, METTL3/14 (Homo sapiens, UniProt Q86U44)
T1 construct: The enzyme used was full-length his-tagged METTL3; His; made in house
Test: METTL3/14 methyltransferase assay (METTL3_14 RFMS, RapidFire mass spectrometry);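 note: recombinant His-tagged METTL3 with FLAG-tagged METTL14 from baculovirus, SAH product quantified by mass spectrometry against isotope-labelled internal standards, 60 min at room temperature, scaled between no-RNA and DMSO-only wells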
Assay type: biochemical
Settings: 5 nM METTL3/14, 0.2 μM RNA substrate, 0.5 μM SAM; lower limit of the assay IC50=5 nM; Compounds 1-62; read-out: METTL3_14 RFMS IC50

T1 sequence (Q86U44 whole entry): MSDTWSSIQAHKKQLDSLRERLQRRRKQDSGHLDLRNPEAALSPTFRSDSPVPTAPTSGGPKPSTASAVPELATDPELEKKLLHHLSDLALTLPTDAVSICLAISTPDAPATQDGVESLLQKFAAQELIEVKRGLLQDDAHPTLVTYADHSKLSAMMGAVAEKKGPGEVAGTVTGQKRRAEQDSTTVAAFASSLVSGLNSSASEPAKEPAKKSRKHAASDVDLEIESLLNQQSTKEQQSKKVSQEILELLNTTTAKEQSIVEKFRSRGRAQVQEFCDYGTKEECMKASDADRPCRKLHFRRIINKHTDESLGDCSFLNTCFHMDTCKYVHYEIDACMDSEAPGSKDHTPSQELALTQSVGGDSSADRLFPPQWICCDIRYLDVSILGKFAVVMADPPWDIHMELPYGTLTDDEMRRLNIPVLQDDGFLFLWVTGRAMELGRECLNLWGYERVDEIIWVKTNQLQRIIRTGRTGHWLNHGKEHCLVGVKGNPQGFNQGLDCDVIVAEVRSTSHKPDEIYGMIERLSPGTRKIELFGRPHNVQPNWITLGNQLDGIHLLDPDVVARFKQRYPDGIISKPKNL
T1 sequence (Q9HCE5 whole entry partner): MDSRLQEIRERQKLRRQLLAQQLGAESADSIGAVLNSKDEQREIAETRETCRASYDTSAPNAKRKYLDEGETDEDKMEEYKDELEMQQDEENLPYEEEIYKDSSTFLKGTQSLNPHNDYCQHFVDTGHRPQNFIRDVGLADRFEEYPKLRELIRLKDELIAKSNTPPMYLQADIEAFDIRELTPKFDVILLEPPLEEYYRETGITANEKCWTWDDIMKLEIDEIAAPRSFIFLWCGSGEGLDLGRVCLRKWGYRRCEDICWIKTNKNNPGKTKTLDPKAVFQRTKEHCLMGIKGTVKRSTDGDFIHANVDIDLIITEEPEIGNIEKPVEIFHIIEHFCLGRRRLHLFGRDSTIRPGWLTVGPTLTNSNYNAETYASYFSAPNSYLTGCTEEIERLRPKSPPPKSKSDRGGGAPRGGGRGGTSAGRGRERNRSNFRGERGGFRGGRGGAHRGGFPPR

Going from `O=C(NCc1cn2cc(C3CC3)ccc2n1)c1cc(=O)n2ccccc2n1` [Compound 59, N-({6-cyclopropylimidazo[1,2-a]pyridin-2-yl}methyl)-4-oxo-4H-pyrido[1,2-a]pyrimidine-2-carboxamide] to `Cc1ccc2nc(CNC(=O)c3cc(=O)n4ccccc4n3)cn2c1` [Compound 15, N-({6-methylimidazo[1,2-a]pyridin-2-yl}methyl)-4-oxo-4H-pyrido[1,2-a]pyrimidine-2-carboxamide], the IC50 falls from 939 nM to 536 nM (1.8-fold). The second is the more potent here.

Going from `COc1ccn2cc(CNC(=O)c3cccc4[nH]ncc34)nc2c1` [Compound 7, N-({7-methoxyimidazo[1,2-a]pyridin-2-yl}methyl)-1H-indazole-4-carboxamide] to `O=C(NCc1cn2ccc(F)cc2n1)c1cccc2[nH]ncc12` [Compound 5, N-({7-fluoroimidazo[1,2-a]pyridin-2-yl}methyl)-1H-indazole-4-carboxamide], the IC50 rises from 2670 nM to 9450 nM (3.5-fold). The first is the more potent here.

Going from `Cc1ccc2nc(CNC(=O)c3cc(Br)cc4[nH]ncc34)cn2c1` [Compound 10, 6-bromo-N-({6-methylimidazo[1,2-a]pyridin-2-yl}methyl)-1H-indazole-4-carboxamide] to `O=C(NCc1cn2ccc(Br)cc2n1)c1cccc2[nH]ncc12` [Compound 2, N-({7-bromoimidazo[1,2-a]pyridin-2-yl}methyl)-1H-indazole-4-carboxamide], the IC50 rises from 1610 nM to 9840 nM (6.1-fold).

Compared with `O=C(NCc1cn2cc(CN3CCNCC3)ccc2n1)c1cccc2[nH]ncc12` [Compound 38, N-({6-[(piperazin-1-yl)methyl]imidazo[1,2-a]pyridin-2-yl}methyl)-1H-indazole-4-carboxamide], `O=C(NCc1cn2cc(F)ccc2n1)c1cccc2[nH]ncc12` [Compound 6, N-({6-fluoroimidazo[1,2-a]pyridin-2-yl}methyl)-1H-indazole-4-carboxamide] is 1.7-fold higher in IC50: 5440 nM for the first, 9120 nM for the second.

First: O=C(NCc1cn2cc(CNCCc3ccccc3)ccc2n1)c1cc(=O)n2ccccc2n1 [Compound 53, 4-oxo-N-[(6-{[(2-phenylethyl)amino]methyl}imidazo[1,2-a]pyridin-2-yl)methyl]-4H-pyrido[1,2-a]pyrimidine-2-carboxamide]
Second: COc1ccc2nc(CNC(=O)c3cc(=O)n4ccccc4n3)cn2c1 [Compound 24, N-({6-methoxyimidazo[1,2-a]pyridin-2-yl}methyl)-4-oxo-4H-pyrido[1,2-a]pyrimidine-2-carboxamide]
The IC50 of the first is 180-fold lower: 38 nM for the first, 6770 nM for the second. The first is the more potent here.

Same assay, conditions: 5 nM METTL3/14, 0.2 μM RNA substrate, 0.5 μM SAM; lower limit of the assay IC50=5 nM; Compounds 63-265; read-out: METTL3_14 RFMS IC50

First: CC1(C)CCCN(Cc2ccc3nc(CNC(=O)c4cc(=O)n5ccccc5n4)cn3c2)C1 [Compound 141, N-({6-[(3,3-dimethylpiperidin-1-yl)methyl]imidazo[1,2-a]pyridin-2-yl}methyl)-4-oxo-4H-pyrido[1,2-a]pyrimidine-2-carboxamide]
Second: CC1(C)CCCCN1Cc1ccc2nc(CNC(=O)c3cc(=O)n4ccccc4n3)cn2c1 [Compound 194, N-({6-[(2,2-dimethylpiperidin-1-yl)methyl]imidazo[1,2-a]pyridin-2-yl}methyl)-4-oxo-4H-pyrido[1,2-a]pyrimidine-2-carboxamide]
The IC50 of the first is 21-fold lower: 14.5 nM for the first, 305 nM for the second. The first is the more potent here.

Compared with `CC(C)(C)OC(=O)N1CCCCC1CNCc1ccc2nc(CNC(=O)c3cc(=O)n4ccccc4n3)cn2c1` (stereo not drawn) [Compound 102, tert-butyl 2-{[({2-[({4-oxo-4H-pyrido[1,2-a]pyrimidin-2-yl} formamido)methyl]imidazo[1,2-a]pyridin-6-yl}methyl)amino]methyl}piperidine-1-carboxylate], `O=C(NCc1cn2cc(CNC(=O)C3CCCCC3)ccc2n1)c1cc(=O)n2ccccc2n1` [Compound 238, N-({6-[(cyclohexylformamido)methyl]imidazo[1,2-a]pyridin-2-yl}methyl)-4-oxo-4H-pyrido[1,2-a]pyrimidine-2-carboxamide] is 2-fold higher in IC50: 429 nM for the first, 850 nM for the second. The first is the more potent here.

`O=C(NCc1cn2cc(CN3CCCCC3)ccc2n1)c1cc(=O)c2ccccc2o1` [Compound 219, 4-oxo-N-({6-[(piperidin-1-yl)methyl]imidazo[1,2-a]pyridin-2-yl}methyl)-4H-chromene-2-carboxamide] and `Cc1ccc2c(=O)cc(C(=O)NCc3cn4cc(CNCC5CCCCC5)ccc4n3)oc2c1` [Compound 181, N-[(6-{[(cyclohexylmethyl)amino]methyl}imidazo[1,2-a]pyridin-2-yl)methyl]-7-methyl-4-oxo-4H-chromene-2-carboxamide] are within 1.5-fold of each other in IC50: 247 nM for the first, 179 nM for the second.

Compared with `O=C(NCc1cn2cc(CNc3cccc(Cl)c3)ccc2n1)c1cc(=O)n2ccccc2n1` [Compound 158, N-[(6-{[(3-chlorophenyl)amino]methyl}imidazo[1,2-a]pyridin-2-yl)methyl]-4-oxo-4H-pyrido[1,2-a]pyrimidine-2-carboxamide], `O=C(NCc1cn2cc(CNc3ccc(Cl)cc3)ccc2n1)c1cc(=O)n2ccccc2n1` [Compound 153, N-[(6-{[(4-chlorophenyl)amino]methyl}imidazo[1,2-a]pyridin-2-yl)methyl]-4-oxo-4H-pyrido[1,2-a] pyrimidine-2-carboxamide] is 2.4-fold lower in IC50: 3810 nM for the first, 1580 nM for the second.

Going from `O=C(NCc1cn2cc(CNCC3CCOC3)ccc2n1)c1cc(=O)n2ccccc2n1` (stereo not drawn) [Compound 120, 4-oxo-N-{[6-({[(oxolan-3-yl)methyl]amino}methyl)imidazo[1,2-a]pyridin-2-yl]methyl}-4H-pyrido [1,2-a]pyrimidine-2-carboxamide] to `CN(Cc1ccc2nc(CNC(=O)c3cc(=O)n4ccccc4n3)cn2c1)CC1CC1` [Compound 136, N-[(6-{[(cyclopropyl-methyl)(methyl)amino]methyl}imidazo[1,2-a]pyridin-2-yl)methyl]-4-oxo-4H-pyrido[1,2-a]pyrimidine-2-carboxamide], the IC50 rises from 24.7 nM to 99 nM (4-fold). The first is the more potent here.

Going from `O=C(NCc1cn2cc(COCc3ccccc3)ccc2n1)c1cc(=O)n2ccccc2n1` [Compound 177] to `O=C(NCc1cn2cc(CN3CCN(c4ccccc4)CC3)ccc2n1)c1cc(=O)n2ccccc2n1` [Compound 130, 4-oxo-N-({6-[(4-phenylpiperazin-1-yl)methyl]imidazo [1,2-a]pyridin-2-yl}methyl)-4H-pyrido[1,2-a] pyrimidine-2-carboxamide], the IC50 falls from 1890 nM to 206 nM (9.2-fold).

Going from `CC1(NCc2ccc3nc(CNC(=O)c4cc(=O)n5ccccc5n4)cn3c2)CCCC1` [Compound 148, N-[(6-{[(1-methylcyclopentyl)amino]methyl}imidazo[1,2-a]pyridin-2-yl)methyl]-4-oxo-4H-pyrido [1,2-a]pyrimidine-2-carboxamide] to `CCN(CC)Cc1ccc2nc(CNC(=O)c3cc(=O)n4ccccc4n3)cn2c1` [Compound 132, N-({6-[(diethylamino)methyl]imidazo [1,2-a]pyridin-2-yl}methyl)-4-oxo-4H-pyrido[1,2-a] pyrimidine-2-carboxamide], the IC50 rises from 28.5 nM to 917 nM (32-fold). The first is the more potent here.

`O=C(NCc1cn2cc(CNCCc3cccnc3)ccc2n1)c1cc(=O)n2ccccc2n1` [Compound 107, 4-oxo-N-{[6-({[2-(pyridin-3-yl)ethyl]amino}methyl)imidazo[1,2-a]pyridin-2-yl]methyl}-4H-pyrido[1,2-a]pyrimidine-2-carboxamide] and `COc1ccc(CNCc2ccc3nc(CNC(=O)c4cc(=O)n5ccccc5n4)cn3c2)cc1` [Compound 71, N-{[6-({[(4-methoxyphenyl)methyl]amino}methyl)imidazo [1,2-a]pyridin-2-yl]methyl}-4-oxo-4H-pyrido [1,2-a]pyrimidine-2-carboxamide] are within 1.5-fold of each other in IC50: 143 nM for the first, 206 nM for the second.

Going from `OCc1ccc2nc(Cn3cc(-c4cncc5[nH]ncc45)nn3)cn2c1` [Example 257, {2-[(4-{1H-pyrazolo[3,4-c]pyridin-4-yl}-1H-1,2,3-triazol-1-yl)methyl]imidazo[1,2-a]pyridin-6-yl}methanol] to `CC(C)(C)[C@@H]1COC[C@H](c2ccc3nc(CNC(=O)c4cc(=O)n5ccccc5n4)cn3c2)N1` [Example 229, N-({6-[(3S,5R)-5-tert-butylmorpholin-3-yl]imidazo[1,2-a]pyridin-2-yl}methyl)-4-oxo-4H-pyrido[1,2-a]pyrimidine-2-carboxamide], the IC50 falls from 4440 nM to 100 nM (44-fold).

Same assay, conditions: 5 nM METTL3/14, 0.2 μM RNA substrate, 0.5 μM SAM; lower limit of the assay IC50=5 nM; Compounds 266-351; read-out: METTL3_14 RFMS IC50

Going from `Cc1ccc2nc(Cn3cc(-c4cccc5[nH]nc(N)c45)nn3)cn2c1` [Example 272, 4-[1-[(6-methylimidazo[1,2-a]pyridin-2-yl)methyl]triazol-4-yl]-1H-indazol-3-amine] to `NC1(CNCc2ccc3nc(Cn4cc(-c5ccc(F)c6[nH]ncc56)nn4)cn3c2)CCCC1` [Example 309, 1-[[[2-[[4-(7-fluoro-1H-indazol-4-yl)triazol-1-yl]methyl]imidazo[1,2-a]pyridin-6-yl]methylamino]methyl]cyclopentanamine], the IC50 falls from 9020 nM to 120 nM (75-fold).

Compared with `Cc1ccc2nc(C(C)(O)c3cnc(-c4cccc5[nH]ncc45)s3)cn2c1` (stereo not drawn) [Example 335, 1-[2-(1H-indazol-4-yl)thiazol-5-yl]-1-(6-methylimidazo[1,2-a]pyridin-2-yl)ethanol], `O=C(NCc1cn2cc(CN3CC4CCC3C4)ccc2n1)c1cc(=O)n2ccccc2n1` (stereo not drawn) [Compound 350, N-{[6-({2-azabicyclo[2.2.1]heptan-2-yl}methyl)imidazo[1,2-a]pyridin-2-yl]methyl}-4-oxo-4H-pyrido[1,2-a]pyrimidine-2-carboxamide] is 130-fold lower in IC50: 7290 nM for the first, 56.2 nM for the second. The second is the more potent here.

Same assay, conditions: primary enzyme screen, inhibition of RNA methyltransferase activity; lower limit of the assay is IC50=5 nM; read-out: IC50

Compound `Cc1ccc2nc(CNC(=O)c3cc(=O)n4ccccc4n3)cn2c1` [Compound 15, N-({6-methylimidazo[1,2-a]pyridin-2-yl}methyl)-4-oxo-4H-pyrido[1,2-a]pyrimidine-2-carboxamide] has an IC50 of 520 nM.

Same assay, conditions: read-out: IC50

Compound `O=C(NCc1cn2cc(CNCCc3ccccc3)ccc2n1)c1cc(=O)n2ccccc2n1` [Compound 53, 4-oxo-N-[(6-{[(2-phenylethyl)amino]methyl}imidazo[1,2-a]pyridin-2-yl)methyl]-4H-pyrido[1,2-a]pyrimidine-2-carboxamide] has an IC50 of 27 nM.

Same assay, conditions: read-out: METTL3_14 RFMS IC50

Compared with `O=C(NCc1cn2cc(CNCc3ccc(Cl)cc3)ccc2n1)c1cc(=O)n2ccccc2n1` [Compound 73, N-{[6-({[(4-chlorophenyl)methyl]amino}methyl)imidazo [1,2-a]pyridin-2-yl]methyl}-4-oxo-4H-pyrido [1,2-a]pyrimidine-2-carboxamide], `O=C(NCc1cn2cc([C@H]3COC[C@@H](C4CCCCC4)N3)ccc2n1)c1cccc2[nH]ncc12` (racemic) [Example 231, N-({6-[(3S,5R)-5-cyclohexylmorpholin-3-yl]imidazo[1,2-a]pyridin-2-yl}methyl)-1H-indazole-4-carboxamide] is 19-fold higher in IC50: 64.9 nM for the first, 1220 nM for the second.
